Test results: patent US12012615B2, “Method of making induced pluripotent stem cells using p53 inhibitors” (Kyoto University, priority 2008, dated 2024)

Assays:
p53 [1] = test: p53 protein level by western blot after shRNA transduction; type: cell-based, human; conditions: western blot six days after retroviral transduction
Description: Retroviral vectors for p53 shRNA or control RNA were transduced into HDFs. Six days after the transduction, p53 protein levels were determined by western blot analyses.
(B) In another experiment, we examined effects of shRNA against human p53 (shRNA2; Stewart S. A. et al. RNA 9(4), 493 (2003)). Retroviral vectors for shRNA expression, pMKO.1-puro (Addgene #8452), pMKO.1-puro p53 shRNA1 (Addgene #10671) and pMKO.1-puro p53 shRNA2 (Addgene #10672; shRNA sequence is shown in SEQ ID NO:28), were obtained from Addgene. Retroviruses for shRNAs, and the four or three reprogramming factors were produced in PLAT-E cells. For iPS cell generation, equal amounts of PLAT-E supematants containing each retrovirus were mixed and transduced to HDF.

HDFs = test: Human iPS cell generation with p53 shRNA co-transduction; type: cell-based; conditions: co-introduced with the four reprogramming factors
From the text: The retroviral vector expressing either p53 shRNA or control RNA was transduced into HDFs together with the four reprogramming factors. To rescue RNAi-mediated knockdown, a retroviral vector for mouse p53 was co-introduced.

p53 [2] = test: Luciferase reporter driven by a p53-responsive element in HDF; type: cell-based, human; conditions: luciferase activity two days after introduction
From the text: (§1) FIGS. 24A-24C show effects of p53 suppression on p21 and Myc. Genes regulated (4 increased and 7 decreased) by p53 suppression were introduced into HDFs together with the four reprogramming factors (FIG. 24A) or the four reprogramming factors and the p53 shRNA (FIG. 24B). On day 24 (FIG. 24A) or day 28 (FIG. 24B) post-transduction, numbers of iPS cell colonies were counted. **; p<0.01 compared to DsRed control (n=3). Luciferase reporters containing responsive elements of p53 or Myc, or that driven by the polymerase II promoter were introduced into HDFs, together with the mock retroviral vector, the p53 shRNA, the four reprogramming factors, or the three factors devoid of Myc. Two days later, luciferase activities were determined (c). **; p<0.01, *; p<0.05 compared to the mock control (n=3).
(§2) The p21 protein binds to Myc and suppresses its transcriptional activity (Kitaura, H. et al., J Biol. Chem., 275(14), 10477-10483 (2000)). This might contribute to the increased efficiency of iPS cell generation by p53-p21 suppression. We evaluated the Myc activity in HDF by introducing luciferase reporters driven by either a p53-responsive element or a Myc responsive element (FIG. 24C). We confirmed the p53 activity was reduced by the shRNA. […] The effect was stronger than that observed with the introduction of the four factors including c-Myc.

Myc = test: Luciferase reporter driven by a Myc responsive element in HDF; type: cell-based, human; conditions: luciferase activity two days after introduction
From the text: as §1, §2

HDF = test: DNA microarray gene expression, control HDF against p53 knockdown HDF; type: cell-based, human
From the text: To elucidate p53 target genes that are responsible for the observed enhancement of iPS cell generation, we compared gene expression between p53 wild-type MEF and p53-null MEF by DNA microarrays, and between control HDF and p53 knockdown HDF. In MEF, 1590 genes increased and 1485 genes decreased >5 fold in p53-null MEF. In HDF, 290 genes increased and 430 genes decreased >5 fold by p53 shRNA. Between mouse and human, eight increased genes are common, including v-myb myeloblastosis viral oncogene homolog (MYB) and a RAS oncogenes family, RAB39B (Table 2).

“p53 shRNA2: shRNA against human p53, SEQ ID NO:28, retroviral vector pMKO.1-puro p53 shRNA2 (Addgene #10672) (GACTCCAGTGGTAATCTACTGCTCGAGCAGTAGATTACCACTGGAGTC)” was tested, and the p53 protein level (p53 [1]) was “effectively suppressed”, the “numbers of human iPS cell colonies” value (HDFs) was “markedly increased” and the “p53 activity (luciferase reporter)” value (p53 [2]) was “reduced”. The “Myc activity (luciferase reporter)” value (Myc) was “significantly enhanced”, the “number of genes decreased >5 fold” value (HDF) was 430 genes and the “number of genes increased >5 fold” value (HDF) was 290 genes.
